# According to US20080039320A1 (priority 2004, published 2008):
# Like-named read-outs stand apart in the source and are kept apart here.
# Assays:
# Puccinia recondita [1] = assay: 6 day protective activity against brown rust of wheat, foliar spray (Use Example 4); type: in vivo; conditions: wheat seedlings
# Description: (§1) The active compounds were prepared separately as a stock solution with 0.25% by weight of active compound in acetone or DMSO. 1% by weight of the emulsifier Uniperol® EL (wetting agent having emulsifying and dispersing action based on ethoxylated alkylphenols) was added to this solution, and the mixture was diluted with water to the desired concentration.
# (§2) The visually determined percentages of infected leaf areas were converted into efficacies in % of the untreated control:
# (§3) The efficacy (E) is calculated as follows using Abbot's formula: E=(1−α/β)·100 α corresponds to the fungicidal infection of the treated plants in % and β corresponds to the fungicidal infection of the untreated (control) plants in % An efficacy of 0 means that the infection level of the treated plants corresponds to that of the untreated control plants; an efficacy of 100 means that the treated plants were not infected.
# (§4) The expected efficacies of active compound combinations were determined using Colby's formula (Colby, S. R. “Calculating synergistic and antagonistic responses of herbicide combinations”, Weeds, 15, 20-22, 1967) and compared with the observed efficacies.
# (§5) Colby's formula: E=x+y−x·y/100
# 6 Day Protective Activity Against Puccinia recondita on Wheat (Brown Rust of Wheat) Leaves of potted wheat seedlings of the cultivar “Kanzler” were sprayed to runoff point with an aqueous suspension having the concentration of active compound stated below. After six days, the treated plants were inoculated with a spore suspension of brown rust of wheat (Puccinia recondite). The plants were then placed in a chamber of high atmospheric humidity (90 to 95%) at 20 to 22° C. for 24 hours. During this time, the spores germinated and the germ tubes penetrated into the leaf tissue. The next day, the test plants were returned to the greenhouse and cultivated at temperatures between 20 and 22° C. and at 65 to 70% relative atmospheric humidity for a further 7 days. The extent of the rust fungus development on the leaves was then determined visually.
# Puccinia recondita [2] = assay: Protective activity against brown rust of wheat, menadione watered in, partner sprayed 6 days later (Use Example 2); type: in vivo; conditions: wheat seedlings
# Description: as §1, §2, §3, §4
# Colby's formula: E=x+y−x·y/100 […]
# Phytophthora infestans = type: in vivo; conditions: tomato plants
# Pyrenophora teres = assay: Activity against net blotch of barley, 6 day protective application (Use Example 3); type: in vivo, Pyrenophora [syn. Drechslera] teres; conditions: barley seedlings
# Description: as §1, §2, §3, §4, §5
# Activity Against Net Blotch of Barley Caused by Pyrenophora teres, 6 Day Protective Application Leaves of potted barley seedlings were sprayed to runoff point with an aqueous suspension having the concentration of active compound stated below. After 6 days, the test plants were inoculated with an aqueous spore suspension of Pyrenophora [syn. Drechslera] teres, the net blotch pathogen. The test plants were then placed in a greenhouse at temperatures between 20 and 24° C. and 95 to 100% relative atmospheric humidity. After 6 days, the extent of the development of the disease was determined visually in % infection of the total leaf area.
# phytopathogenic fungi = assay: Fungicidal tests, overall statements; type: in vivo; conditions: menadione on its own
# Description: as §1, §2
# The efficacy (E) is calculated as follows using Abbot's formula: E=(1−α/β)·100
# as §4, §5
# [3] = test system: Erysiphe [syn. Blumeria] graminis forma specialis. tritici; assay: Activity against mildew of wheat, 6 day protective application (Use Example 6); type: in vivo; conditions: wheat seedlings
# Description: as §1, §2, §3, §4, §5
# Activity Against Mildew of Wheat Caused by Erysiphe [syn. Blumeria] graminis Forma Specialis. Tritici, 6 Day Protective Application Leaves of potted wheat seedlings of the cultivar “Kanzler” were sprayed to runoff point with an aqueous suspension having the concentration of active compound stated below. The suspension or emulsion had been prepared as described above. 6 days after the application of the active compound, the plants were dusted with spores of mildew of wheat (Erysiphe [syn. Blumeria] graminis forma specialis. tritici). The test plants were then placed in a greenhouse at temperatures between 20 and 24° C. and at 60 to 90% relative atmospheric humidity. After 7 days, the extent of the mildew development was determined visually in % infection of the total leaf area.
# Pyricularia oryzae = type: in vivo; conditions: rice seedlings
compound,measurement,setting,value
"Fc1ccc([C@]2(Cn3cncn3)O[C@H]2c2ccccc2Cl)cc1 (racemic) [epoxiconazole, (2RS,3SR)-1-[3-(2-chlorophenyl)-2,3-epoxy-2-(4-fluorophenyl)propyl]-1H-1,2,4-triazole]",Observed effect (%),Puccinia recondita [1]; 1 ppm,22%
"O=C(Nc1ccccc1-c1ccc(Cl)cc1)c1cccnc1Cl [boscalid, 2-chloro-N-(4′-chlorobiphenyl-2-yl)nicotinamide]",Observed effect (%),Puccinia recondita [1]; 63 ppm,22%
"CC1CCN(c2c(-c3c(F)cc(F)cc3F)c(Cl)nc3ncnn23)CC1 [compound A, 5-Chloro-7-(4-methylpiperidin-1-yl)-6-(2,4,6-trifluorophenyl)-[1,2,4]triazolo[1,5-a]pyrimidine]",Observed effect (%),Puccinia recondita [1]; 63 ppm,22%
same,Observed effect (%),"Puccinia recondita [2]; 4 ppm, sprayed to runoff",25%
"COc1ccc(C(=CC(=O)N2CCOCC2)c2ccc(Cl)cc2)cc1OC [dimethomorph, 3-(4-chlorophenyl)-3-(3,4-dimethoxyphenyl)-1-morpholin-4-ylpropenone]",Observed effect (%),Phytophthora infestans; 16 ppm,37%
"CC(C)NC(=O)N1CC(=O)N(c2cc(Cl)cc(Cl)c2)C1=O [iprodione, N-isopropyl-3-(3,5-dichlorophenyl)-2,4-dioxoimidazolidine-1-carboxamide]",Observed effect (%),Pyrenophora teres; 250 ppm,22%
"CC1=CC(=O)c2ccccc2C1=O [menadione, 2-methyl-1,4-naphthoquinone]",Observed effect (%),Pyrenophora teres; 16 ppm,0%
same,Observed effect (%),Pyrenophora teres; 63 ppm,0%
same,Observed effect (%),Phytophthora infestans; 63 ppm,27%
same,Observed effect (%),Puccinia recondita [1]; 1 ppm,0%
same,Observed effect (%),Puccinia recondita [1]; 16 ppm,25%
same,fungicidal action against phytopathogenic fungi,phytopathogenic fungi,no fungicidal action
same,Observed effect (%),[3]; 16 ppm,0%
same,Observed effect (%),"Pyricularia oryzae; 250 ppm, efficacy in % of untreated control (Abbot)",0%
same,Observed effect (%),"Puccinia recondita [2]; 3.6%, watered with 2 ml aqueous suspension comprising 71 mg",0%
"COc1cc(C)c(C(=O)c2c(OC)ccc(Br)c2C)c(OC)c1OC [metrafenone, 3′-bromo-2,3,4,6′-tetramethoxy-2′,6-dimethylbenzophenone]",Observed effect (%),[3]; 63 ppm,67%
"COC(=O)N(OC)c1ccccc1COc1ccn(-c2ccc(Cl)cc2)n1 [pyraclostrobin, methyl N-{2-[1-(4-chlorophenyl)-1H-pyrazol-3-yloxymethyl]phenyl}(N-methoxy)carbamate]",Observed effect (%),"Pyricularia oryzae; 1 ppm, applied 1 day before inoculation",20%
zinc ammoniate ethylenebis(dithiocarbamate) [metiram],Observed effect (%),[3]; 63 ppm,0%
